{"source": "PubChem BioAssay AID320", "about": "(DTP/NCI, 2004)", "test_system": "BDF1 mice, P329 reticulum cell sarcoma ip, survival T/C", "assay": "NCI In Vivo Anticancer Drug Screen. Data for tumor model P329 Reticulum Cell Sarcoma (intraperitoneal) in B6D2F1 (BDF1) mice", "details": "endpoint: median survival time, higher = longer survival", "experimental": "The antitumor activity of compounds was measured in mice bearing transplantable tumors. Survival or tumor size were measured and the results are expressed as the measurement made in the treated group (T) divided by the measurement made in the vehicle treated control group (C). The tumor model used in this assay is P329 Reticulum Cell Sarcoma (intraperitoneal) in B6D2F1 (BDF1) mice", "key": {"[1]": {"details": "dose: 6.25 mg/kg/injection, schedule: Q01DX010 (ip), vehicle: saline"}, "[2]": {"details": "dose: 12.5 mg/kg/injection, schedule: Q01DX010 (ip), vehicle: saline"}, "[3]": {"details": "dose: 1.5 mg/kg/injection, schedule: Q01DX010 (ip), vehicle: saline"}, "[4]": {"details": "dose: 3.0 mg/kg/injection, schedule: Q01DX010 (ip), vehicle: saline"}, "[5]": {"details": "dose: 6.0 mg/kg/injection, schedule: Q01DX010 (ip), vehicle: saline"}, "[6]": {"details": "dose: 12.0 mg/kg/injection, schedule: Q01DX010 (ip), vehicle: saline"}, "[7]": {"details": "dose: 25.0 mg/kg/injection, schedule: Q01DX010 (ip), vehicle: saline"}, "[8]": {"details": "dose: 2.5 mg/kg/injection, schedule: Q01DX010 (ip), vehicle: saline"}, "[9]": {"details": "dose: 10.0 mg/kg/injection, schedule: Q01DX010 (ip), vehicle: saline"}, "[10]": {"details": "dose: 20.0 mg/kg/injection, schedule: Q01DX010 (ip), vehicle: saline"}, "[11]": {"details": "dose: 37.5 mg/kg/injection, schedule: Q01DX010 (ip), vehicle: saline"}, "[12]": {"details": "dose: 75.0 mg/kg/injection, schedule: Q01DX010 (ip), vehicle: saline"}, "[13]": {"details": "dose: 150.0 mg/kg/injection, schedule: Q01DX010 (ip), vehicle: saline"}, "[14]": {"details": "dose: 2.0 mg/kg/injection, schedule: Q01DX010 (ip), vehicle: saline"}, "[15]": {"details": "dose: 4.0 mg/kg/injection, schedule: Q01DX010 (ip), vehicle: saline"}, "[16]": {"details": "dose: 8.0 mg/kg/injection, schedule: Q01DX010 (ip), vehicle: saline"}}, "note": "Values joined by “and” are separate entries in the source; they are usually repeats but may differ in a detail not shown here. Equal entries are not always repeated. Inconclusive results and toxic doses are left out."}
{"smiles": "O=NN(CCCl)C(=O)NCCCl", "values": [{"measurement": "T/C", "setting": "dose: 3.13 mg/kg/injection, schedule: Q01DX010 (ip), vehicle: saline", "value": "158 % of control"}, {"measurement": "T/C", "setting": "[1]", "value": "157 % of control and 158 % of control"}, {"measurement": "T/C", "setting": "[2]", "value": "103 % of control"}]}
{"smiles": "N=C(N)c1ccc(Nc2ccc(C(=N)N)cc2)cc1", "values": [{"measurement": "T/C", "setting": "[3]", "value": "93 % of control"}, {"measurement": "T/C", "setting": "[4]", "value": "87 % of control"}, {"measurement": "T/C", "setting": "[5]", "value": "96 % of control"}, {"measurement": "T/C", "setting": "[6]", "value": "90 % of control"}]}
{"smiles": "CN(Cc1cnc2nc(N)nc(N)c2n1)c1ccc(C(=O)N[C@@H](CCC(=O)O)C(=O)O)cc1", "values": [{"measurement": "T/C", "setting": "dose: 0.19 mg/kg/injection, schedule: Q01DX010 (ip), vehicle: other", "value": "101 % of control and 106 % of control"}, {"measurement": "T/C", "setting": "dose: 0.38 mg/kg/injection, schedule: Q01DX010 (ip), vehicle: other", "value": "100 % of control and 110 % of control and 116 % of control"}, {"measurement": "T/C", "setting": "dose: 0.75 mg/kg/injection, schedule: Q01DX010 (ip), vehicle: other", "value": "114 % of control"}]}
{"smiles": "CCN(CC)CCNc1ccc(C)c2sc3ccccc3c(=O)c12", "values": [{"measurement": "T/C", "setting": "[7]", "value": "111 % of control and 114 % of control"}, {"measurement": "T/C", "setting": "dose: 100.0 mg/kg/injection, schedule: Q01DX010 (ip), vehicle: saline", "value": "115 % of control"}]}
{"smiles": "Nc1ncnc2[nH]ncc12", "values": [{"measurement": "T/C", "setting": "[3]", "value": "107 % of control"}, {"measurement": "T/C", "setting": "[4]", "value": "111 % of control"}, {"measurement": "T/C", "setting": "[5]", "value": "123 % of control"}, {"measurement": "T/C", "setting": "[6]", "value": "88 % of control and 103 % of control"}]}
{"smiles": "S=P(N1CCOCC1)(N1CC1)N1CC1", "values": [{"measurement": "T/C", "setting": "[8]", "value": "100 % of control"}, {"measurement": "T/C", "setting": "dose: 5.0 mg/kg/injection, schedule: Q01DX010 (ip), vehicle: saline", "value": "100 % of control and 107 % of control"}, {"measurement": "T/C", "setting": "[9]", "value": "100 % of control and 119 % of control"}, {"measurement": "T/C", "setting": "[10]", "value": "107 % of control and 115 % of control"}]}
{"smiles": "Cn1cnc([N+](=O)[O-])c1Sc1nc(N)nc2nc[nH]c12", "values": [{"measurement": "T/C", "setting": "[8]", "value": "150 % of control"}, {"measurement": "T/C", "setting": "[9]", "value": "100 % of control"}]}
{"smiles": "Clc1ccc(C(c2ccccc2Cl)C(Cl)Cl)cc1", "note": "(stereo not drawn)", "values": [{"measurement": "T/C", "setting": "dose: 62.5 mg/kg/injection, schedule: Q01DX010 (sc), vehicle: steriod suspending solution", "value": "100 % of control"}, {"measurement": "T/C", "setting": "dose: 125.0 mg/kg/injection, schedule: Q01DX010 (sc), vehicle: steriod suspending solution", "value": "100 % of control"}, {"measurement": "T/C", "setting": "dose: 250.0 mg/kg/injection, schedule: Q01DX010 (sc), vehicle: steriod suspending solution", "value": "107 % of control"}, {"measurement": "T/C", "setting": "dose: 500.0 mg/kg/injection, schedule: Q01DX010 (sc), vehicle: steriod suspending solution", "value": "103 % of control"}]}
{"smiles": "COS(C)(=O)=O", "values": [{"measurement": "T/C", "setting": "[2]", "value": "100 % of control"}, {"measurement": "T/C", "setting": "[7]", "value": "93 % of control"}, {"measurement": "T/C", "setting": "dose: 50.0 mg/kg/injection, schedule: Q01DX010 (ip), vehicle: saline", "value": "116 % of control"}]}
{"smiles": "CO[C@@H]1[C@@H](OC2OC(C)C(OC3CC(C)(O)C(OC(=O)CC(C)C)C(C)O3)C(N(C)C)C2O)[C@@H](CC=O)C[C@@H](C)C(=O)/C=C/C2O[C@H]2C[C@@H](C)OC(=O)C[C@H]1OC(C)=O", "note": "(stereo partly drawn)", "values": [{"measurement": "T/C", "setting": "[11]", "value": "100 % of control"}, {"measurement": "T/C", "setting": "[12]", "value": "100 % of control and 107 % of control"}, {"measurement": "T/C", "setting": "[13]", "value": "103 % of control and 107 % of control"}, {"measurement": "T/C", "setting": "dose: 300.0 mg/kg/injection, schedule: Q01DX010 (ip), vehicle: saline", "value": "107 % of control and 114 % of control"}]}
{"smiles": "CC[C@]1(O)C[C@H]2CN(CCc3c([nH]c4ccccc34)[C@@](C(=O)OC)(c3cc4c(cc3OC)N(C=O)[C@H]3[C@@](O)(C(=O)OC)[C@H](OC(C)=O)[C@]5(CC)C=CCN6CC[C@]43[C@@H]65)C2)C1", "values": [{"measurement": "T/C", "setting": "dose: 0.03 mg/kg/injection, schedule: Q01DX010 (ip), vehicle: saline", "value": "100 % of control and 105 % of control"}, {"measurement": "T/C", "setting": "dose: 0.06 mg/kg/injection, schedule: Q01DX010 (ip), vehicle: saline", "value": "104 % of control and 113 % of control"}, {"measurement": "T/C", "setting": "dose: 0.12 mg/kg/injection, schedule: Q01DX010 (ip), vehicle: saline", "value": "114 % of control"}]}
{"smiles": "N=[N+]=CC(=O)OCC(N)C(=O)O", "note": "(stereo not drawn)", "values": [{"measurement": "T/C", "setting": "[1]", "value": "153 % of control and 162 % of control"}, {"measurement": "T/C", "setting": "[2]", "value": "175 % of control and 176 % of control"}, {"measurement": "T/C", "setting": "[7]", "value": "87 % of control and 92 % of control"}]}
{"smiles": "CC(CCC(C)OS(C)(=O)=O)OS(C)(=O)=O", "note": "(stereo not drawn)", "values": [{"measurement": "T/C", "setting": "[14]", "value": "100 % of control and 107 % of control"}, {"measurement": "T/C", "setting": "[15]", "value": "103 % of control and 107 % of control"}, {"measurement": "T/C", "setting": "[16]", "value": "114 % of control and 115 % of control"}]}
{"smiles": "CSc1ncnc2nc[nH]c12", "values": [{"measurement": "T/C", "setting": "[7]", "value": "115 % of control and 123 % of control"}]}
{"smiles": "CC[n+]1c(-c2ccccc2)c2cc(N)ccc2c2ccc(N)cc21", "values": [{"measurement": "T/C", "setting": "[8]", "value": "114 % of control"}, {"measurement": "T/C", "setting": "[10]", "value": "107 % of control"}]}
{"smiles": "O=C(Nc1ccc(NC2=NCCN2)cc1)c1ccc(C(=O)Nc2ccc(NC3=NCCN3)cc2)cc1", "values": [{"measurement": "T/C", "setting": "[14]", "value": "153 % of control and 157 % of control"}, {"measurement": "T/C", "setting": "[15]", "value": "173 % of control and 176 % of control"}, {"measurement": "T/C", "setting": "[16]", "value": "184 % of control and 203 % of control"}, {"measurement": "T/C", "setting": "dose: 16.0 mg/kg/injection, schedule: Q01DX010 (ip), vehicle: saline", "value": "88 % of control and 92 % of control"}]}
{"smiles": "CN(C)c1nc(N(C)C)nc(N(C)C)n1", "values": [{"measurement": "T/C", "setting": "dose: 18.8 mg/kg/injection, schedule: Q01DX010 (ip), vehicle: saline", "value": "96 % of control and 103 % of control"}, {"measurement": "T/C", "setting": "[11]", "value": "92 % of control and 100 % of control"}, {"measurement": "T/C", "setting": "[12]", "value": "92 % of control and 107 % of control"}, {"measurement": "T/C", "setting": "[13]", "value": "107 % of control and 114 % of control"}]}
